Legend:
[1] = target: T1, N-acylethanolamine acid amidase (NAAA) (Rattus norvegicus, UniProt Q5KTC7); experiment: LC/MS enzyme activity assay in HEK-rNAAA cell preparations; format: biochemical
T1 sequence (Q5KTC7 34-130): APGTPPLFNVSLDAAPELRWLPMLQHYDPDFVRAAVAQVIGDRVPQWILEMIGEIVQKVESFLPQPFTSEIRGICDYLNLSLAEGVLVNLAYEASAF
T1 sequence (Q5KTC7 131-362): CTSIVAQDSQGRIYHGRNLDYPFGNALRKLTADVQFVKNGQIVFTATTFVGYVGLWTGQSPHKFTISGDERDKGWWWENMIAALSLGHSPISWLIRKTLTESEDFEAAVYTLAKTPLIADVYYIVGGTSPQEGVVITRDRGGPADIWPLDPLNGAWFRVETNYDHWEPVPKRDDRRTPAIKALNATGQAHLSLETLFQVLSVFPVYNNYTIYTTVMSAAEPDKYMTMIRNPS

[2] = substrate: CCCCCC/C=C\CCCCCCCCC(=O)NCCO; experiment: Michaelis-Menten analysis by LC/MS of heptadecenoic acid formation; format: biochemical, Rattus norvegicus

C[C@@H]1OC(=O)[C@@H]1NC(=O)OCCCCCc1ccccc1 [ARN077, 5-phenylpentyl N-[(2S,3R)-2-methyl-4-oxo-oxetan-3-yl] carbamate]
IC50 [1]: 11 nM

B1: N-acylethanolamine acid amidase (NAAA) (Rattus norvegicus) (protein)
chain 1: T1 sequence (Q5KTC7 34-130)
chain 2: T1 sequence (Q5KTC7 131-362)
Vmax [2]: 0.0154 µmol/min/mg

From PMC3723234 (Pain, 2012)
